This is an account of results in patent US10301630B2, “Methods and compositions for unsilencing imprinted genes” (The University of North Carolina at Chapel Hill, priority 2010, dated 2019).

Where two headings read alike, the source gives them in different places.

The test system of this test is paternal Ube3a-YFP allele. Nature of the test: High-content imaging of paternal Ube3a-YFP unsilencing in primary cortical neurons. Format: cell-based, mouse. The conditions noted are these: 72 h; for EC50: unsilencing paternal Ube3a-YFP; for EC20 / Potency EC20 (nM) / Potency EC20: 1 nM to 30 μM; for EC20: read-out: Potency EC20; for unsilencing of paternal Ube3a-YFP in dose-response experiments: cultured Ube3a m+/pYFP neurons. The protocol: In all screening assays, primary cortical neurons from Ube3a-YFP mice are isolated from embryonic day 15.5 animals, and the genotype of animals is determined to identify mice that encode the Ube3a-YFP transgene on the paternal allele. Freshly isolated cortical neurons are seeded into 384 well plates and cultured for 7 days. At day in vitro seven, screening is performed using multiple chemical libraries and compound concentration of 10 μM in 0.2% DMSO vehicle. After 72 h of drug exposure (run in quadruplicate wells), neurons are fixed with 4% para formaldehyde and processed for immunofluorescence using an anti-GFP-Alexa 488 conjugated antibody to enhance the signal of Ube3a-YFP in neurons. For image analyses, individual wells of immunofluorescence-processed plates are imaged fro DAPI and GFP fluorescence using the BD-Pathway 855 high-content imaging microscope. Ube3a-YFP fluorescence intensities in individual neurons are determined in drug-treated wells and normalized to 0.2% DMSO-treated (i.e., vehicle control) wells using custom written macros and algorithms using NIH Image J and Arrayscan Cell Profiler software programs. These image analyses enable masking of nuclei in individual neurons and determination of Ube3a-YFP fluorescence intensity in the nuclei of individual neurons.
For these studies, DIV 7 primary neurons encoding paternal Ube3a-YFP are dose treated with hit compounds across seven orders of magnitude in full and half log molar concentrations (3 pM to 30 μM). Ube3a-YFP fluorescence intensities in living neurons are determined again by high-content imaging microscopy after 72 h treatments. The dose response results are analyzed by least squares sigmoidal dose-response curve fitting models using Graphpad Prism 5.0 (Graphpad Software, Inc.). The calculated EC50 values (potencies) and Y value top plateau (estimated efficacies or Emax) enable comparative analyses of the relative potency and efficacy of the identified compounds.
Primary cortical neurons were isolated from E13.5-16.5 Ube3a-YFP mice. Screening was performed in quadruplicate at DIV7 using multiple chemical libraries and a compound concentration of 10 μM in 0.2% DMSO vehicle. After 72 h of drug exposure, neurons were fixed with 4% paraformaldehyde in PBS for 35 min, permeabilized with 0.3% Triton X-100 in PBS on ice for 30 min, and blocked by 5% goat serum with 0.1% Triton X-100 in PBS at room temperature for 1 hr. Cells were incubated with a rabbit polyclonal antibody to GFP (1:1000, Novus Biologicals, NB600-308) at room temperature for 1 hr and then incubated with Alexa Fluor 488 goat antibody to rabbit IgG (1:200, Invitrogen, A11008) and DAPI (1:10,000, Invitrogen, D-1306) at room temperature for 30 min. Individual wells of immunofluorescence-processed plates were imaged for DAPI or Alexa 488 fluorescence using the BD Pathway 855 high-content imaging microscope with a 488 excitation/515 long pass filter. Antibody-enhanced UBE3A-YFP fluorescence intensities were determined from individual neurons in drug-treated wells and normalized to neurons in wells treated with 0.2% DMSO (vehicle control). Analyses were performed with custom macros and algorithms using NIH Image J and Arrayscan Cell Profiler software programs (Thermo Scientific/Cellomics). These image analyses enabled masking of nuclei in individual neurons and determination of UBE3A-YFP fluorescence intensities in the nuclei of individual neurons (FIG. 16).
DIV7 primary neurons from Ube3a^m+/pYFP mice were dose-treated for 72 h with topoisomerase I and II inhibitors in ten point dose-responses in full and half log molar concentrations (1 nM to 30 μM). Neurons were fixed, processed for immunofluorescence, and UBE3A-YFP fluorescence intensities were again determined by high-content imaging microscopy.

[1] abbreviates: Mus musculus, Cortical neurone, Table 1, Ube3a-YFP fluorescence intensity above control cells (0.2% DMSO treated), cortical neurons, read-out: Efficacy Emax (fold over control).
Setting [2] is: Mus musculus, Cortical neurone, Table 1, cortical neurons, read-out: EC50.
Setting [3] is: Mus musculus, Neuron, Table 3, unsilencing the paternal allele of Ube3a-YFP in cultured neurons.
Setting [4] is: Mus musculus, Neuron, Table 3, unsilencing the paternal allele of Ube3a-YFP in cultured neurons, read-out: Efficacy Emax (fold over vehicle).
[5] abbreviates: Table 3, unsilencing the paternal allele of Ube3a-YFP in cultured neurons.
Where [6] appears, read: Table 1, Ube3a-YFP fluorescence intensity above control cells (0.2% DMSO treated), cortical neurons.
The mark [7] stands for this setting: Table 1, cortical neurons, read-out: EC50.

In the case of `CC[C@@]1(O)C(=O)OCc2c1cc1n(c2=O)Cc2c-1nc1ccc(O)cc1c2[Si](C)(C)C(C)(C)C` [Silatecan (DB67), Silatecan], the maximal fold induction reads like this: under setting [1], 1.71 ± 0.06; under setting [4], 1.65 ± 0.05. Also, under setting [2], the EC50 stood at 2640 ± 95 nM. In addition, the EC20 under setting [3] stood at 2240 ± 171 nM.
As for ICRF-193, the “unsilencing of paternal Ube3a-YFP in dose-response experiments” value (“unsilencing of paternal Ube3a-YFP” below) is “unsilenced the paternal Ube3a-YFP allele”. The EC50 (Table 1, cortical neurons) was 131 ± 13 nM. Also, under setting [5], the “Potency EC20 (nM)” value was 205 ± 70^ nM.
In the case of `CC[C@@]1(O)C(=O)OCc2c1cc1n(c2=O)Cc2cc3ccccc3nc2-1` [Camptothecin (CPT), Camptothecin], the maximal fold induction under setting [1] was 1.66 ± 0.06 and the maximal fold induction under setting [4] amounted to 2.11 ± 0.05. Besides, the EC50 under setting [2] turned out to be 32 ± 1.3 nM. In addition, under setting [3], the EC20 came to 21 ± 3.8 nM.
As for `CC[C@@]1(O)C(=O)NCc2c1cc1n(c2=O)Cc2cc3ccccc3nc2-1` [Lactam E ring-CPT (inactive), Lactam E ring-CPT], the “unsilencing of paternal Ube3a-YFP” value was “failed to unsilence the paternal Ube3a-YFP allele”. Under setting [5], the “Efficacy Emax (fold over vehicle)” value is “inactive” and the “Potency EC20 (nM)” value was “inactive”.
On to `COc1cc2c3c(n(CCCNCCO)c(=O)c2cc1OC)-c1cc2c(cc1C3=O)OCO2` [NSC706744], for which the “Efficacy Emax (fold over control)” value under setting [6] is listed as 1.76 ± 0.03 fold over control. For the same compound, the EC50 under setting [7] is 6.2 ± 2 nM. Further, under setting [5], the “Efficacy Emax (fold over vehicle)” value is recorded as 1.84 ± 0.07 fold over vehicle and the “Potency EC20” value is given as 11 ± 3.2 nM.
Regarding `C[C@@H](CN1CC(=O)NC(=O)C1)N1CC(=O)NC(=O)C1` [Dexrazoxane (ICRF-187), Dexrazoxane], the “unsilencing of paternal Ube3a-YFP” value is listed as “unsilenced the paternal Ube3a-YFP allele”. Besides, the EC20 under setting [3] was found to be 20500 ± 1450 nM. Under setting [4], the maximal fold induction was 1.82 ± 0.05.
In the case of `CCc1c2c(nc3ccccc13)-c1cc3c(c(=O)n1C2)COC(=O)[C@]3(O)CC` [7-Ethyl-CPT, 7-Ethyl-Camptothecin], the “Efficacy Emax (fold over control)” value under setting [6] worked out at 1.68 ± 0.05 fold over control. Also, under setting [7], the concentration giving a half-maximal response (EC50) was determined as 49 ± 1.3 nM. Moreover, under setting [5], the “Efficacy Emax (fold over vehicle)” value is 1.70 ± 0.04 fold over vehicle and the “Potency EC20” value was 7.2 ± 2.3 nM.
`CC[C@@]1(O)C(=O)OCc2c1cc1n(c2=O)Cc2cc3cc(O)ccc3nc2-1` [10-Hydroxy-CPT]: the “Efficacy Emax (fold over control)” value under setting [6] amounted to 1.68 ± 0.06 fold over control. Also, the EC50 under setting [7] turned out to be 40 ± 1.4 nM. Under setting [5], the “Efficacy Emax (fold over vehicle)” value was found to be 1.82 ± 0.08 fold over vehicle and the “Potency EC20” value is listed as 14 ± 5.7 nM.
In the case of `COc1cc2c3c(n(CCCn4ccnc4)c(=O)c2cc1OC)-c1cc2c(cc1C3=O)OCO2` [NSC725776], the “Efficacy Emax (fold over control)” value under setting [6] amounted to 1.82 ± 0.05 fold over control. The EC50 under setting [7] is 9.2 ± 2 nM. For the same compound, under setting [5], the “Efficacy Emax (fold over vehicle)” value is recorded as 1.76 ± 0.03 fold over vehicle and the “Potency EC20” value came out at 10 ± 1.6 nM.
As for `CCc1c2c(nc3ccc(O)cc13)-c1cc3c(c(=O)n1C2)COC(=O)[C@]3(O)CC` [7-Ethyl-10-Hydroxy-CPT], the “Efficacy Emax (fold over control)” value under setting [6] was found to be 2.00 ± 0.09 fold over control. Also, the half-maximal effective concentration (EC50) under setting [7] amounted to 33 ± 1.3 nM. Under setting [5], the “Efficacy Emax (fold over vehicle)” value came out at 1.99 ± 0.06 fold over vehicle and the “Potency EC20” value is 11 ± 3.2 nM.
For `COc1cc2c3c(n(CCCN4CCOCC4)c(=O)c2cc1OC)-c1cc2c(cc1C3=O)OCO2` [NSC724998], the “Efficacy Emax (fold over control)” value under setting [6] came to 1.65 ± 0.03 fold over control. The EC50 under setting [7] worked out at 12 ± 4 nM. Under setting [5], the “Efficacy Emax (fold over vehicle)” value amounted to 1.69 ± 0.03 fold over vehicle and the “Potency EC20” value is given as 14 ± 2.2 nM.
On to `CC[C@@]1(O)C(=O)OCc2c1cc1n(c2=O)Cc2c-1nc1ccccc1c2CCNC(C)C` [Belotecan (CKD602), Belotecan], for which the maximal fold induction by setting is: under setting [1], 1.85 ± 0.04; under setting [4], 1.88 ± 0.05. The EC50 under setting [2] came out at 18 ± 1.1 nM. For the same compound, the EC20 under setting [3] is 19 ± 4.4 nM.
Regarding `CC[C@@]1(O)C(=O)OCc2c1cc1n(c2=O)Cc2cc3c([N+](=O)[O-])cccc3nc2-1` [Rubitecan (9-Nitro-CPT), Rubitecan], the maximal fold induction reads like this: under setting [1], 2.07 ± 0.08; under setting [4], 2.09 ± 0.09. The 50% effective concentration (EC50) under setting [2] worked out at 43 ± 9.1 nM. Also, under setting [3], the EC20 worked out at 62 ± 18 nM.
As to `COc1cc([C@@H]2c3cc4c(cc3[C@@H](O[C@@H]3O[C@@H]5CO[C@@H](C)O[C@H]5[C@H](O)[C@H]3O)[C@H]3COC(=O)[C@H]23)OCO4)cc(OC)c1O` [Etoposide], the “unsilencing of paternal Ube3a-YFP” value is reported as “unsilenced the paternal Ube3a-YFP allele”. For the same compound, under setting [3], the EC20 was determined as 1600 ± 980 nM. For the same compound, the maximal fold induction under setting [4] amounted to 1.68 ± 0.04.
As for `COc1cc(NS(C)(=O)=O)ccc1Nc1c2ccccc2nc2ccccc12` [Amsacrine], the maximal fold induction by setting is: under setting [1], 1.65 ± 0.05; under setting [4], 1.74 ± 0.06. Besides, the EC50 under setting [2] turned out to be 28 ± 10 nM. Besides, under setting [3], the EC20 is 27 ± 5.2 nM.
